For orientation: IC50 means the concentration that gives 50% inhibition. Read a low IC50 as greater potency in that assay.

Among the data in patent US20080221063A1, “Heterocyclic Sulfonamide Derivatives As Inhibitors Of Factor Xa” (ASTRAZENECA AB, priority 2005, published 2008) are IC50 values, retold here.

In the experiment the target is T1, human FXa (Homo sapiens, UniProt P00742).
T1 construct: FXa solution (human FXa, Haematologic Technologies Inc., Essec Junction, Vt., USA); purchased Haematologic Technologies Inc
T1 sequence (P00742 235-488 limits assumed): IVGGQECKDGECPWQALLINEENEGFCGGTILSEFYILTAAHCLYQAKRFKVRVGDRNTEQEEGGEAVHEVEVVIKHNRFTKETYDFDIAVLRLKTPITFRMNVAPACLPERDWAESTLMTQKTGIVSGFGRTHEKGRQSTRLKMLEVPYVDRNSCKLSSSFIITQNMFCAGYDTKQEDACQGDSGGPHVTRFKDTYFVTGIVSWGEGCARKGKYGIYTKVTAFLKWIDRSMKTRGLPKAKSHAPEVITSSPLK
T1 sequence (P00742 41-179 partner limits assumed): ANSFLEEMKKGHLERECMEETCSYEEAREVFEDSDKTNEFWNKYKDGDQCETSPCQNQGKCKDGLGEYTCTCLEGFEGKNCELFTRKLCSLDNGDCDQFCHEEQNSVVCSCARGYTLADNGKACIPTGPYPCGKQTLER
Description: Measurement of Factor Xa Inhibition (chromogenic substrate method). It is filed as biochemical. To be noted: chromogenic substrate S-2765, 40 min incubation at 37° C., pH 7.4. As for the experimental part: a) Measurement of Factor Xa Inhibition
The FXa inhibitor potency was measured with a chromogenic substrate method, in a Plato 3300 robotic microplate processor (Rosys AG, CH-8634 Hombrechtikon, Switzerland), using 96-well, half-volume microtiter plates (Costar, Cambridge, Mass., USA; Cat No 3690). Stock solutions of test substance in DMSO (72 μL), 10 mmol/L, alternatively 1 mmol/L were diluted serially 1:3 (24+48 μL) with DMSO to obtain ten different concentrations, which were analyzed as samples in the assay, together with controls and blanks. As control sample melagatran was analysed. The dilutions of each test substance were analyzed consecutively, row-wise on the microtiter plate, with wasp cycles between substances to avoid cross-contamination. […] The final assay concentrations were: test substance 0.0068-133, respectively 0.00068-13.3 μmol/L, S-2765 0.40 mmol/L (KM=0.25 mmol/L) and FXa […]. The linear absorbance increase at 405 n=during 40 min incubation at 37° C. was used for calculation of percent inhibition for the test samples, as compared to references without inhibitor and/or enzyme. […]

In the case of `CCNC(=O)C1CN(S(=O)(=O)c2ccc3c(Cl)c[nH]c3c2)CC(=O)N1CC1CCN(c2ccc(=O)n(C)n2)CC1` (centres unmarked) [Example 4, 4-(3-Chloro-1H-indole-6-sulfonyl)-1-[1-(1-methyl-6-oxo-1,6-dihydro-pyridazin-3-yl)-piperidin-4-ylmethyl]-6-oxo-piperazine-2-carboxylic acid ethylamide], the half-inhibitory concentration (IC50) is 5 nM. The result for `CC(C)OC(=O)C1CN(S(=O)(=O)c2ccc3c(Cl)c[nH]c3c2)CC(=O)N1CC1CCN(c2ccc(=O)n(C)n2)CC1` (centres unmarked) [Example 13, 4-(3-Chloro-1H-indole-6-sulfonyl)-1-[1-(1-methyl-6-oxo-1,6-dihydro-pyridazin-3-yl)-piperidin-4-ylmethyl]-6-oxo-piperazine-2-carboxylic acid isopropyl ester] reads 2.3 nM.
